Test results: patent US5916586A, “Personal cleansing system comprising polymeric diamond-mesh bath sponge and liquid cleanser with deodorant composition” (priority 1996, dated 1999)

Columns and labels:
[1] = Morpholine test: depression of partial vapor pressure of morpholine beyond Raoult's Law (headspace GC); details: morpholine 0.25 g + material 1 g, 37° C., 30 minutes equilibrium, headspace gas chromatography
[2] = molecular target: T1, lipoxidase (ECI.13.1.13) (Glycine max, UniProt P08170); assay: Lipoxidase test: inhibition of oxidation of linoleic acid by lipoxidase; type: biochemical; details: test substrate made with 0.5% by weight solution of material in ethanol, borate buffer pH 9.0, increase in OD at 234 nm
T1 sequence (P08170 1-839): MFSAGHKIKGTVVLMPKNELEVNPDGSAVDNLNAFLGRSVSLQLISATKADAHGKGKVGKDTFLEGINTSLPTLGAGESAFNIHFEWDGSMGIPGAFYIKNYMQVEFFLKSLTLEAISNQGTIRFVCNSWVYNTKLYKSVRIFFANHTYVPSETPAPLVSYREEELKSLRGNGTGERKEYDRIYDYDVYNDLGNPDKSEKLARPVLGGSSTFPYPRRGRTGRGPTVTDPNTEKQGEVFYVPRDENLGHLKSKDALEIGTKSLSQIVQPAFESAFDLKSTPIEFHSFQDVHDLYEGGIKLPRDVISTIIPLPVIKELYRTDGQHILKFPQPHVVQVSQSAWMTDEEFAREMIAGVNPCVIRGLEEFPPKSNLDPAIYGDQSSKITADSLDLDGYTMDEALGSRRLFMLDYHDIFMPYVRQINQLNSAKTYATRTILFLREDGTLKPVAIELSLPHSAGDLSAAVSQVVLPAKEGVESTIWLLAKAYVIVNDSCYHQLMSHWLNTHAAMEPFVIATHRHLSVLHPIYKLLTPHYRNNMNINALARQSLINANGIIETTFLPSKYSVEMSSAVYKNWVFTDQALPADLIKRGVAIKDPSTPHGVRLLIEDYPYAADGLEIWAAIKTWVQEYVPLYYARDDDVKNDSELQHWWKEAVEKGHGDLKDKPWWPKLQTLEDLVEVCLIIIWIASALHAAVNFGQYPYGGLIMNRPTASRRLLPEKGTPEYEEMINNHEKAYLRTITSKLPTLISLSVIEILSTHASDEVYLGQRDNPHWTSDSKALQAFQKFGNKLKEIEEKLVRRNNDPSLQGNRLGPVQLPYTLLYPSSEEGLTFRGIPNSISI

RVR (Raoult variance ratio) [1]: 1.21 | LIC (lipoxidase-inhibiting capacity, % inhibition) [2]: 100%
SMILES: COC(=O)c1c(C)cc(O)c(C)c1O [LRG 201]
